Assay results as given in patent US20240279215A1 (Cytokinetics, Incorporated, priority 2022, published 2024).

Target: human NAMPT (Homo sapiens (Human), UniProt P43490)
Assay: NMN fluorescence biochemical assay (human recombinant NAMPT enzyme assay)
Description: Compounds described herein were assayed for their ability to stimulate the synthesis of nicotinamide mononucleotide (NMN) by the enzyme NAMPT. The human recombinant enzyme assay measures the activation of the enzyme activity by compounds using recombinant enzyme and substrates in a buffered cell-free system. The assay conditions closely mimic cellular environments. Dose responses were measured using an assay to detect the formation of nicotinamide mono-nucleotide. All experiments were performed in the 384-well format. Generally, 0.5 μL of DMSO containing varying concentrations of the test compound was mixed with 10 μL of the enzyme reagent solution. Enzyme reactions were initiated with the addition of […] containing the substrates. The final assay conditions were as follows: 6 nM human NAMPT, 2.5 mM ATP, 20 μM PRPP and 150 μM nicotinamide in 50 mM HEPES, pH 7.2, 1 mM DTT, 1 mM CHAPS 50 mM NaCl, 100 mM MgCl2. Following an incubation of 60 min at ambient temperature, 10 μL of 20% acetophenone in DMSO was added, followed by 10 μL of 2 M KOH and 40 μL of formic acid. The plates were read for fluorescence (Excitation/Emission=355 nm/460 nm) using an EnVision plate reader after 40 mins of incubation at ambient temperature.

Chain of human NAMPT (P43490 whole entry): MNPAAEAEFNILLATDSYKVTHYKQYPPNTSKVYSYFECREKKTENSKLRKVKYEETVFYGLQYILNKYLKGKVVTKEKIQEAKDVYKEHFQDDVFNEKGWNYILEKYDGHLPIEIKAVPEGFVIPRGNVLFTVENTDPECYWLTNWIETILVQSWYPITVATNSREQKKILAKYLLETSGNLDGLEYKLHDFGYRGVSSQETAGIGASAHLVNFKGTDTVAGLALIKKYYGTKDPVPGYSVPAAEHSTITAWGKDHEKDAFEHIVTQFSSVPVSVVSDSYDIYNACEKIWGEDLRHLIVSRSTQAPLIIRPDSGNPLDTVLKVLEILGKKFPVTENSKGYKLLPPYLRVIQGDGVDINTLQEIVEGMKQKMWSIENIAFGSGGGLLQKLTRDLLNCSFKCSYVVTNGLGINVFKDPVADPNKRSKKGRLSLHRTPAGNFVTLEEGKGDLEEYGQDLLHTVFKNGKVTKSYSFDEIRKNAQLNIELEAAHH

Structure (SMILES) | AC1.4 Human | EC50
Cc1ccc(Cc2ccc(NC(=O)OCc3ccc(F)cc3)cc2)cn1 [Compound 331, 4-fluorobenzyl (4-((6-methylpyridin-3-yl)methyl)phenyl)carbamate] | 8.67 µM | 11.9 µM
CC(=O)N1CC2CCC(C1)C2c1ccc(NC(=O)OCc2cnco2)cc1 (stereo not drawn) [Compound 445, oxazol-5-ylmethyl (4-(3-acetyl-3-azabicyclo[3.2.1]octan-8-yl)phenyl)carbamate] | 0.56 µM | 33.5 µM
CCc1ncoc1C(=O)NCc1ccc(NC(=O)OCc2ccc(Cl)cc2)cc1 [Compound 347, (4-chlorophenyl)methyl N-(4-{[(4-ethyl-1,3-oxazol-5-yl)formamido]methyl}phenyl)carbamate] | 13.92 µM | 34.8 µM
CN1CCN(Cc2ccc(NC(=O)OCc3ccc(Cl)cc3)cc2)CC1=O [Compound 284, (4-chlorophenyl)methyl N-{4-[(4-methyl-3-oxopiperazin-1-yl)methyl]phenyl}carbamate] | 3.72 µM | 19.2 µM
O=C(Nc1ccc(CC2C3CC2CN(C2COC2)C3)cc1)OCc1cnco1 (stereo not drawn) [Compound 439, oxazol-5-ylmethyl (4-((3-(oxetan-3-yl)-3-azabicyclo[3.1.1]heptan-6-yl)methyl)phenyl)carbamate] | 1.47 µM | 25.6 µM
COc1ccc(COC(=O)Nc2ccc(Cc3ccncc3)cc2)cc1 [Compound 262, 4-methoxybenzyl (4-(pyridin-4-ylmethyl)phenyl)carbamate] | 2.83 µM | 11.9 µM
Cc1ncc(C(=O)NCc2ccc(NC(=O)OCc3ccc(Cl)cc3)cc2)o1 [Compound 157, (4-chlorophenyl)methyl N-(4-{[(2-methyl-1,3-oxazol-5-yl)formamido]methyl}phenyl)carbamate] | 1.32 µM | 9.11 µM
O=C(Nc1ccc(CC2CCN(C3COC3)CC2)cc1)OCc1ccncc1 [Compound 316] | 6.04 µM | 28.6 µM
O=C(Nc1ccc(CC2CCNCC2)cc1)OCc1cnco1 [Compound 320, oxazol-5-ylmethyl (4-(piperidin-4-ylmethyl)phenyl)carbamate] | 6.60 µM | 34.2 µM
C[C@H](NC(=O)C1COC1)c1ccc(NC(=O)OCc2ccc(Cl)cc2)cc1 [Compound 122, 4-chlorobenzyl (S)-(4-(1-(oxetane-3-carboxamido)ethyl)phenyl)carbamate] | 0.97 µM | 6.46 µM
O=C(Nc1ccc(CNC(=O)c2cncnc2)cc1)OCc1ccc(Cl)cc1 [Compound 175, (4-chlorophenyl)methyl N-{4-[(pyrimidin-5-ylformamido)methyl]phenyl}carbamate] | 1.47 µM | 8.92 µM
CCC(=O)N1CC2(CC(Cc3ccc(NC(=O)OCc4cnco4)cc3F)C2)C1 [Compound 402, oxazol-5-ylmethyl (3-fluoro-4-((2-propionyl-2-azaspiro[3.3]heptan-6-yl)methyl)phenyl)carbamate] | 0.07 µM | 12.4 µM
CC(C)OC(=O)N1CCC(Cc2ccc(NC(=O)OCc3cnco3)cc2)CC1 [Compound 446, isopropyl 4-(4-(((oxazol-5-ylmethoxy)carbonyl)amino)benzyl)piperidine-1-carboxylate] | 0.73 µM | 19.3 µM
O=C(Nc1ccc(CC2CCN(C(=O)C3COC3)CC2)cc1)OCc1cnco1 [Compound 48, oxazol-5-ylmethyl (4-((1-(oxetane-3-carbonyl)piperidin-4-yl)methyl)phenyl)carbamate] | 0.49 µM | 31 µM
O=C(Nc1ccc(CNC(=O)c2cccnn2)cc1)OCc1ccc(Cl)cc1 [Compound 248, (4-chlorophenyl)methyl N-{4-[(pyridazin-3-ylformamido)methyl]phenyl}carbamate] | 2.51 µM | 2.4 µM
